Consider 6 molecules from ChEMBL document CHEMBL5584284, “Advancing Neurological Therapies: Integrating Novel Compounds and Clinical Trials for Enhanced Cognitive and Neuronal Health” (ACS Med Chem Lett, 2024).

Common to all, as to type: functional, cell-based
Test [1] has as its system Cortical neurone. Description: Neuroplasticity effect in Wistar rat cortical neurons assessed as increase in neurite length at <= 10 uM incubated for 72 […].
For test [2], the system named is Cortical neurone. Description: Neuroplasticity effect in Wistar rat cortical neurons assessed as increase in neurite number at <= 10 uM incubated for 72 […].
Test [3] deals with Cortical neurone. As to the kind of experiment: Neuroplasticity effect in Wistar rat cortical neurons assessed as increase in neurite branching at <= 10 uM incubated for 72 […].

Activity calls are given as the source filed them. No cut-off for these calls is given here.

Take `CN1CCC2Nc3cc(OCc4ccccc4)ccc3C2CC1` (stereo not drawn): the outcome in the test with Cortical neurone [1] and with Cortical neurone [2] was Active. Further, the result in the test with Cortical neurone [3] was inactive.
As for `Fc1ccc(Oc2ccc3c(c2)NC2CCNCCC32)cc1` (stereo not drawn), the result with Cortical neurone [1], with Cortical neurone [2] and in the test with Cortical neurone [3] was Active.
On to `CN1CCC2Nc3cc(OCc4ccc(F)cc4)ccc3C2CC1` (stereo not drawn), for which the result in the test with Cortical neurone [1], in the test on Cortical neurone [2] and in the test on Cortical neurone [3] was Active.
In the case of `CN1CCC2c3ccc(Oc4ccccc4)cc3N(C)C2CC1` (stereo not drawn), the outcome in the test on Cortical neurone [1] was Active. In addition, the outcome in the test with Cortical neurone [2] and in the test with Cortical neurone [3] was inactive.
Take `c1ccc(COc2ccc3c(c2)NC2CCNCCC32)cc1` (stereo not drawn): the outcome in the test with Cortical neurone [1], with Cortical neurone [2] and with Cortical neurone [3] was Active.
Regarding `CN1CCC2Nc3cc(Oc4ccccc4)ccc3C2CC1` (stereo not drawn), the outcome in the test on Cortical neurone [1], in the test with Cortical neurone [2] and in the test with Cortical neurone [3] was Active.
